This is an account of results in ChEMBL document CHEMBL5550200, “Back-Pocket Optimization of 2-Aminopyrimidine-Based Macrocycles Leads to Potent EPHA2/GAK Kinase Inhibitors” (J Med Chem, 2024).

Assay [1] deals with Ephrin type-A receptor 7 (Homo sapiens) (UniProt Q15375). Nature of the assay: Induction of stabilization of recombinant EPHA7 (unknown origin) assessed as change in melting temperature by differential scanning fluorimetry assay.
Assay [2] addresses T1, Ephrin type-B receptor 1 (Homo sapiens) (UniProt P54762).
T1 sequence (whole entry): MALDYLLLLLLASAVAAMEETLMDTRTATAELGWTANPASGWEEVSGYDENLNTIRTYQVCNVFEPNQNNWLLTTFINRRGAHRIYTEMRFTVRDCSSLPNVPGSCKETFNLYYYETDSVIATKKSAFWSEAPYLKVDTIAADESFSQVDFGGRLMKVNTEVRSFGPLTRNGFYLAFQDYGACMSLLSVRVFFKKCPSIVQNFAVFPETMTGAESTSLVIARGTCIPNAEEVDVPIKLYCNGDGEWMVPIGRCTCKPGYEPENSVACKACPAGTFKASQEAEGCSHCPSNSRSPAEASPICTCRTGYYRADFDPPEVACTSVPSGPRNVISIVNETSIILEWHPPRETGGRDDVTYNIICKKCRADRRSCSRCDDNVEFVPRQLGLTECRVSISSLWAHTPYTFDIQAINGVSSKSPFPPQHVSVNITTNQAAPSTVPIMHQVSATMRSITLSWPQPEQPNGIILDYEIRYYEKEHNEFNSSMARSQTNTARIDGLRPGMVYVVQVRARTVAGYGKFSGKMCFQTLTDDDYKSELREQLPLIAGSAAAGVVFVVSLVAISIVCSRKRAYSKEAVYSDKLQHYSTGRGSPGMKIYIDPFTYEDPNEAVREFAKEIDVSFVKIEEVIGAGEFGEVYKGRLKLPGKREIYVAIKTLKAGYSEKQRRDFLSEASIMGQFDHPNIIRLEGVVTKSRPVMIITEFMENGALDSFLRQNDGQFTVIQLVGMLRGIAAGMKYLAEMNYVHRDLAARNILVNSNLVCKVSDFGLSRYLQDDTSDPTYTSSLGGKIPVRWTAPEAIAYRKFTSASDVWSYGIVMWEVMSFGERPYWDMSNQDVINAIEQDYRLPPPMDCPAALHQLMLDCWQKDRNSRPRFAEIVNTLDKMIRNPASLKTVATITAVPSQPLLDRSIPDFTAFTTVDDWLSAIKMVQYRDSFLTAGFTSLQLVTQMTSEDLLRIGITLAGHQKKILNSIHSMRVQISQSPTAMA
The experiment in a line: Induction of stabilization of recombinant EPHB1 (unknown origin) assessed as change in melting temperature by differential scanning fluorimetry assay. A general note: DSF heats the sample and reads unfolding from a dye or from intrinsic fluorescence.

For assay [3], the target named is Ephrin type-A receptor 5 (Homo sapiens) (UniProt P54756).
Description: Induction of stabilization of recombinant EPHA5 (unknown origin) assessed as change in melting temperature by differential scanning fluorimetry assay
In assay [4] the target is T2, Cyclin-G-associated kinase (Homo sapiens) (UniProt O14976).
T2 sequence (whole entry): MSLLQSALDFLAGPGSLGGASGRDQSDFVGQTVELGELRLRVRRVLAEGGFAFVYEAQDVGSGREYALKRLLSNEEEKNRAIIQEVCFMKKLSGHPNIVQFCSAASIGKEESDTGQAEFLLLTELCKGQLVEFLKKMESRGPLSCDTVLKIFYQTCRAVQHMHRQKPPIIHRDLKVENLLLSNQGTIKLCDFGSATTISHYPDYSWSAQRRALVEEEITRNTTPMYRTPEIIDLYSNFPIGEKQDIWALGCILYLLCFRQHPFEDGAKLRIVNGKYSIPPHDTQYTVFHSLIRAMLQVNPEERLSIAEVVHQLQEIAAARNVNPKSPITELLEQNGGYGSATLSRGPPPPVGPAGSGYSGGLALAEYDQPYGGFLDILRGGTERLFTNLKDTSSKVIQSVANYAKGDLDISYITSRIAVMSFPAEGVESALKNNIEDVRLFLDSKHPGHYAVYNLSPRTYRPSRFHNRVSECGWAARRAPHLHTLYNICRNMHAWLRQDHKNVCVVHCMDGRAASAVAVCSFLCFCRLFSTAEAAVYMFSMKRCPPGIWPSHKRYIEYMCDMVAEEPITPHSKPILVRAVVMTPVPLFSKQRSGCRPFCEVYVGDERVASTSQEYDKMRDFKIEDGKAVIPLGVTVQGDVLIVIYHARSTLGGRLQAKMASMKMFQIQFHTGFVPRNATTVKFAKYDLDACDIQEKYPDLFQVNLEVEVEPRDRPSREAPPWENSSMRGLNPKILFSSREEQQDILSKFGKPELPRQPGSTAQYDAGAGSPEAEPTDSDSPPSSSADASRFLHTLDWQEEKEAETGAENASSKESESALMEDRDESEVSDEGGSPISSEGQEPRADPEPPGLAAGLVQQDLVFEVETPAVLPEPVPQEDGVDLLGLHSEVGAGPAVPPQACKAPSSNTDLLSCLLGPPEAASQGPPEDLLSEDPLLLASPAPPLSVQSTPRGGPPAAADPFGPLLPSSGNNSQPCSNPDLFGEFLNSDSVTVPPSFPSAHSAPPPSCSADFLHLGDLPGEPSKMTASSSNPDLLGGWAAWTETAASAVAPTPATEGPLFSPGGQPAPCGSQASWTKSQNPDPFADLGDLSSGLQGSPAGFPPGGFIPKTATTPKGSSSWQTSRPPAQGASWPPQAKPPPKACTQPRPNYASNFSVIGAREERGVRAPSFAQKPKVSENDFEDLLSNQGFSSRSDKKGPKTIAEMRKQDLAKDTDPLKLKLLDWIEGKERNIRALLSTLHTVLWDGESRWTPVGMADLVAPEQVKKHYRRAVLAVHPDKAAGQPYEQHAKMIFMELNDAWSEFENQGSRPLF
Description: Induction of stabilization of recombinant GAK (unknown origin) assessed as change in melting temperature by differential scanning fluorimetry assay

Another assay has as its target Ephrin type-A receptor 2 (Homo sapiens, UniProt P29317).
A further assay deals with Ephrin type-A receptor 4 (Homo sapiens, UniProt P54764). Nature of the assay: Induction of stabilization of recombinant EPHA4 (unknown origin) assessed as change in melting temperature by differential scanning fluorimetry assay.
The target in assay [5] is Fibroblast growth factor receptor 1 (Homo sapiens, UniProt P11362).
Description: Induction of stabilization of recombinant FGFR1 (unknown origin) assessed as change in melting temperature by differential scanning fluorimetry assay
The target of assay [6] is Fibroblast growth factor receptor 2 (Homo sapiens) (UniProt P21802).
Description: Induction of stabilization of recombinant FGFR2 (unknown origin) assessed as change in melting temperature by differential scanning fluorimetry assay
In assay [7] the target is Vascular endothelial growth factor receptor 1 (Homo sapiens, UniProt P17948). The experiment in a line: Induction of stabilization of recombinant FLT1 (unknown origin) assessed as change in melting temperature by differential scanning fluorimetry assay.
For assay [8], the target named is T3, Ephrin type-B receptor 3 (Homo sapiens) (UniProt P54753).
T3 sequence (whole entry): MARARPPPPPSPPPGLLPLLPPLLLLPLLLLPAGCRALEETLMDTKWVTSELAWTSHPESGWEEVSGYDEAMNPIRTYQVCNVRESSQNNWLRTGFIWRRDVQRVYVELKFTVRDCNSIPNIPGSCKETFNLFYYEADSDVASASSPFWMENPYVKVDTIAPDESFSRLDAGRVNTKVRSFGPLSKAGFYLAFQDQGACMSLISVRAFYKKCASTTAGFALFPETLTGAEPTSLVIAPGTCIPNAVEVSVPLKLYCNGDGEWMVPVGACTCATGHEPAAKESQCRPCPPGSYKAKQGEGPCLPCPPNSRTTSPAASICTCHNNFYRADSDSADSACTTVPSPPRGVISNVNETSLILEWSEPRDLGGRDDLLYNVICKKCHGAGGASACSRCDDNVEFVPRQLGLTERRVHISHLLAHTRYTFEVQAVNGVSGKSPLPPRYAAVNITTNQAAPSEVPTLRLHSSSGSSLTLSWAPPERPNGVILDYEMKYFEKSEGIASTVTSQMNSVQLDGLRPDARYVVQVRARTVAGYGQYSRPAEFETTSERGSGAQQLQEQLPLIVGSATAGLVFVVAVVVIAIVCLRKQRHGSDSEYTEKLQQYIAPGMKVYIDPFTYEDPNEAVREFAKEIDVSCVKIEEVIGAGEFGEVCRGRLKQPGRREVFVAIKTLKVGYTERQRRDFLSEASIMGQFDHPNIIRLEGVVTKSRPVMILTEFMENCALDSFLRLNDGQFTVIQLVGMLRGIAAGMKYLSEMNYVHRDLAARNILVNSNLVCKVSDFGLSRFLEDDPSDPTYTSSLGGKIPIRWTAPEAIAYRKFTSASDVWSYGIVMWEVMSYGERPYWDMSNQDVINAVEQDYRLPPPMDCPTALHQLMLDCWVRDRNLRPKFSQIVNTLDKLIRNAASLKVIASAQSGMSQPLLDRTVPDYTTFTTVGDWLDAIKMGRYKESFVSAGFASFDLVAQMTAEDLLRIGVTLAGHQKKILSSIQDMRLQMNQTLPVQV
The experiment in a line: Induction of stabilization of recombinant EPHB3 (unknown origin) assessed as change in melting temperature by differential scanning fluorimetry assay.

Chain of Ephrin type-A receptor 2 (P29317 whole entry): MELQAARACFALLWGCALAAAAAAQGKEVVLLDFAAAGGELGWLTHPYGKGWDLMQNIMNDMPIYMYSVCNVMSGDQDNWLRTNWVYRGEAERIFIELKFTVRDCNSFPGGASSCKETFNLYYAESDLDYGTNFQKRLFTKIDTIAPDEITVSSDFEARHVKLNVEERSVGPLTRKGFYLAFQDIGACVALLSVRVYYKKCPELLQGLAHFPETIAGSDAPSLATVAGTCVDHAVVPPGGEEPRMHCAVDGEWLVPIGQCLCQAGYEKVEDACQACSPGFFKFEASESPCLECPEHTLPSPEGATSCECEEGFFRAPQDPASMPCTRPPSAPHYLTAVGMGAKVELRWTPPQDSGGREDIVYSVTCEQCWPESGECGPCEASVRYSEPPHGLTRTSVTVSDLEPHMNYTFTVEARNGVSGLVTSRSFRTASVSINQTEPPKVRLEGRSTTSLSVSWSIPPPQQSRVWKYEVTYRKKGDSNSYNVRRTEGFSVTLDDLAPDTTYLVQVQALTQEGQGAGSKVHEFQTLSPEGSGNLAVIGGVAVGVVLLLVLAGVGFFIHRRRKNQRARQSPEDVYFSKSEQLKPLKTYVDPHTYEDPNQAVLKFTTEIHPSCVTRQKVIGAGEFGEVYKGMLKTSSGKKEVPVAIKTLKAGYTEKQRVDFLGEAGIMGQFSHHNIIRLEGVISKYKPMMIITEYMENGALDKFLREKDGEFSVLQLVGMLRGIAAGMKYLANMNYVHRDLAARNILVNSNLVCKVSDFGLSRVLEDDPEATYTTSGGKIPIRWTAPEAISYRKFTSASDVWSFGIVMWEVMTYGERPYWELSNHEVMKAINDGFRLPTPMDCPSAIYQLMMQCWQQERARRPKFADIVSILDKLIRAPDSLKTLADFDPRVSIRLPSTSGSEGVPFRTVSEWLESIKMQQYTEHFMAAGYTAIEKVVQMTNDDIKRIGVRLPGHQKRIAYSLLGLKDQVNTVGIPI
Chain of Fibroblast growth factor receptor 1 (P11362 22-822 limits assumed): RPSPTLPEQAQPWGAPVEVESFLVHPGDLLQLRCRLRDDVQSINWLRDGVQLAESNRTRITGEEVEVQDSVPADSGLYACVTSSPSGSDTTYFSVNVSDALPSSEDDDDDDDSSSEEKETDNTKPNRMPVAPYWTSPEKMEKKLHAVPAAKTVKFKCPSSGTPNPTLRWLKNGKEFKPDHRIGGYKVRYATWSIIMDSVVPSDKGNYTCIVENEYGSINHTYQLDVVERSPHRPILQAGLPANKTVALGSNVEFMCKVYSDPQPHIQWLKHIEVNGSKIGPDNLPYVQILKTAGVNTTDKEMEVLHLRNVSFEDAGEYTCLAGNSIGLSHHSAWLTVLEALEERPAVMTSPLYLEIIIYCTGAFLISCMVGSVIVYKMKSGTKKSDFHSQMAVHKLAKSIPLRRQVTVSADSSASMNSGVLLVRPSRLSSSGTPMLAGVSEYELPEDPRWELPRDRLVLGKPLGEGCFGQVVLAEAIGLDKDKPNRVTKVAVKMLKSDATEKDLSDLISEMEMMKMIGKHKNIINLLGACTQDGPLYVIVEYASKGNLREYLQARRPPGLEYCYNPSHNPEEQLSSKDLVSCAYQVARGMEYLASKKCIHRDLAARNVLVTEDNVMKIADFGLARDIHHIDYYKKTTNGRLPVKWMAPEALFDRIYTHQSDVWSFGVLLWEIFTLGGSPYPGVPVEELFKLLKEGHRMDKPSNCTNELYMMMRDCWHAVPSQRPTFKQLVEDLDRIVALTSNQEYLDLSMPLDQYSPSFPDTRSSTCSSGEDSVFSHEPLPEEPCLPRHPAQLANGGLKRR
Chain of Fibroblast growth factor receptor 2 (Homo sapiens) (P21802 22-821 limits assumed): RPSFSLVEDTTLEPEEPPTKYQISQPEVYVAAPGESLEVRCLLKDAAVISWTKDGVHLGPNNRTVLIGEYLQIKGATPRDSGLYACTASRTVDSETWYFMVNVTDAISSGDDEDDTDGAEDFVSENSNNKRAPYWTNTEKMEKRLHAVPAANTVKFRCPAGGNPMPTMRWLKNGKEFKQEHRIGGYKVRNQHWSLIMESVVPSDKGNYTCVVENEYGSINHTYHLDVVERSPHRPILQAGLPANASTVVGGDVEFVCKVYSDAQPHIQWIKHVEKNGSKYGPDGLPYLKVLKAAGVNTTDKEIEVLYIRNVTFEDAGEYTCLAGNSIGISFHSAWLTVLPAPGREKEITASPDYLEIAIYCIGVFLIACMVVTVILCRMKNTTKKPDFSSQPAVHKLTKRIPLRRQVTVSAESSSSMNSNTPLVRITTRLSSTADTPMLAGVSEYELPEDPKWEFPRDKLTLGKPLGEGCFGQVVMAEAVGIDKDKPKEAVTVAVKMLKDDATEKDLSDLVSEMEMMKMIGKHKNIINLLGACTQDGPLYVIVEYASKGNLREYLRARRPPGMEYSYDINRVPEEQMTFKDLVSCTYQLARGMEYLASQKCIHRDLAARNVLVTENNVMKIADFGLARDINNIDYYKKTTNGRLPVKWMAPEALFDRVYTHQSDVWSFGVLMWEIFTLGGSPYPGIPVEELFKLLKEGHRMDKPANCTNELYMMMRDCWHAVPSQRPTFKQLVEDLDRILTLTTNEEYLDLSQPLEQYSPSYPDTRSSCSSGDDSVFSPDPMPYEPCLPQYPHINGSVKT
Chain of Ephrin type-A receptor 5 (Homo sapiens) (P54756 whole entry): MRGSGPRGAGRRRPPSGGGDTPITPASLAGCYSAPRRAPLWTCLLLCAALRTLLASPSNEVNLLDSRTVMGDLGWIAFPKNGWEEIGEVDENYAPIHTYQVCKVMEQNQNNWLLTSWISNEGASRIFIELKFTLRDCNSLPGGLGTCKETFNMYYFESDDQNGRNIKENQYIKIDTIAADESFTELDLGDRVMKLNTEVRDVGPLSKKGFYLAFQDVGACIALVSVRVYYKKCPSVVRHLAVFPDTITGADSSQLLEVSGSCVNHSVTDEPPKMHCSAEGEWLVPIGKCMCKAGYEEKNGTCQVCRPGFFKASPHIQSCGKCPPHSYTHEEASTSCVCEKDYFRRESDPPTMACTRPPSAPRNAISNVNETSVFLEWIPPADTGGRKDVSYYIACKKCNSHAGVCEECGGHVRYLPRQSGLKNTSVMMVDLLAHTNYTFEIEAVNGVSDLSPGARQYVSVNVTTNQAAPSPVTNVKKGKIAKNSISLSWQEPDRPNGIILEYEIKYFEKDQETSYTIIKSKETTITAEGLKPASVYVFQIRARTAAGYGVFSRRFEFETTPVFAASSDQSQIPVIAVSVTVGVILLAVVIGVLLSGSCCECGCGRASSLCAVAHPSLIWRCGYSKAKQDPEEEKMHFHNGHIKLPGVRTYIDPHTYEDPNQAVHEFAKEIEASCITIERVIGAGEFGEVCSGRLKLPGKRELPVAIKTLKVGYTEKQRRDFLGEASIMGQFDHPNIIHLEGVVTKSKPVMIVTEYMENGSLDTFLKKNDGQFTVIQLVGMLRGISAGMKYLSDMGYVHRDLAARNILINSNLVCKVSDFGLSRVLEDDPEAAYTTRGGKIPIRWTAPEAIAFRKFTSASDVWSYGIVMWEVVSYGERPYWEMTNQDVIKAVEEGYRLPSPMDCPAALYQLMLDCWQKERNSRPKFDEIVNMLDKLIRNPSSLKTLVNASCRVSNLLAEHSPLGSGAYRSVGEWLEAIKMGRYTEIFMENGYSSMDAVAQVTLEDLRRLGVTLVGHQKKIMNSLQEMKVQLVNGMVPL
Chain of Vascular endothelial growth factor receptor 1 (P17948 whole entry): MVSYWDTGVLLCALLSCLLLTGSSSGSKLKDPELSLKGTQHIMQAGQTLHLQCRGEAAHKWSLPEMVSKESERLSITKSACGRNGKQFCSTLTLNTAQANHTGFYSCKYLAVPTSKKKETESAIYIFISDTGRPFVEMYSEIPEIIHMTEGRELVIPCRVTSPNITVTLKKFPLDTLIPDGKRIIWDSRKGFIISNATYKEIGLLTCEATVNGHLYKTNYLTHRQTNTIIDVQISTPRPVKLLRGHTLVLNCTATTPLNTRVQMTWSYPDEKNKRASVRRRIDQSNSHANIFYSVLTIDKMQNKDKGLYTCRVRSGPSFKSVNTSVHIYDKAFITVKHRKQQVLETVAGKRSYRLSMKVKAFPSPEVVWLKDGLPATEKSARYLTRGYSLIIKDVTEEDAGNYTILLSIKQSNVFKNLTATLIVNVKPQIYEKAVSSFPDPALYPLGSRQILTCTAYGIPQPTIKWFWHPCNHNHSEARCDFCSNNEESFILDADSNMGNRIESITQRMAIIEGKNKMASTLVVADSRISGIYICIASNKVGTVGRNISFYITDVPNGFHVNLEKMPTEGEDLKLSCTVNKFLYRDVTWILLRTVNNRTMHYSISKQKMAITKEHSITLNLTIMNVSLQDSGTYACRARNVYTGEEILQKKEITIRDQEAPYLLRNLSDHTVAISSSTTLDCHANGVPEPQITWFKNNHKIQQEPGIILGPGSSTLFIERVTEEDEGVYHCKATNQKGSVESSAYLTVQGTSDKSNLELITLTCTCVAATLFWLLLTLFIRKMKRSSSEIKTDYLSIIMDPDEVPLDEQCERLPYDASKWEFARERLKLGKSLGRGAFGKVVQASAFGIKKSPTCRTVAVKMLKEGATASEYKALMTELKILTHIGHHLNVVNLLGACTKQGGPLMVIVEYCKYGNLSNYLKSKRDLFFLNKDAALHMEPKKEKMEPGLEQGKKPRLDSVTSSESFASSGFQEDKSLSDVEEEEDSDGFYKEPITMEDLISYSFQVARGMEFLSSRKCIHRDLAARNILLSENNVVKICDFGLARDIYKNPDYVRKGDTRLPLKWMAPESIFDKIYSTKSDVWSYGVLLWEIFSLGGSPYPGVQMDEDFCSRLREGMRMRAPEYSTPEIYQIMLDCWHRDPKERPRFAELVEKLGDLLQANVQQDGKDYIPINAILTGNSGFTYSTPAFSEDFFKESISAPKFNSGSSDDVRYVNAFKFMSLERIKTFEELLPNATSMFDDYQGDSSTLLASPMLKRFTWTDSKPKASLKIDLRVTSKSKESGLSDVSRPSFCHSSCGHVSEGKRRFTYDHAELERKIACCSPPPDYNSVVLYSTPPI
Description for Ephrin type-A receptor 2: Induction of stabilization of recombinant EPHA2 (D596 to G900 residues) (unknown origin) expressed in Escherichia coli rosetta BL21(D3)-R3-pRARE2 competent cells assessed as change in melting temperature by differential scanning fluorimetry assay

Turning to `COc1cc(-c2cnc3nc2NCCCNS(=O)(=O)c2cc(ccc2-c2ccc(O)cc2)N3)ccc1F`, the deltaTm in [1] was found to be 2.9 K; in [2] it was 4.3 K; in [3], 6.7 K; in assay [4], 3.6 K; at Ephrin type-A receptor 2, 9.8 K; at Ephrin type-A receptor 4, 5.3 K. Further, the deltaTm came out at 3.1 K in assay [5], 4 K in [6], 3.6 K in [7] and 6 K in assay [8].

As to `COc1cc(-c2cnc3nc2NCCCNS(=O)(=O)c2cccc(c2)N3)ccc1C#N`, the deltaTm in assay [1] was 0 K; in assay [2] it was 5.2 K; in assay [3], 6.2 K; in assay [4], 8.9 K; on Ephrin type-A receptor 2 it was 8.6 K; on Ephrin type-A receptor 4, 5.2 K. Moreover, the deltaTm amounted to 0 K in assay [5], 1.7 K in assay [6], 1.1 K in [7] and 3.1 K in assay [8].

For `COc1cc(-c2cnc3nc2NCCCNS(=O)(=O)c2cc(ccc2OCC(N)=O)N3)ccc1F`, the deltaTm in assay [1] came out at 0.7 K; in assay [2] it was 1.5 K; in assay [3] it was 3.9 K; in assay [4], 6.3 K; on Ephrin type-A receptor 2 it was 3.5 K; at Ephrin type-A receptor 4, 2.3 K. The deltaTm in assay [5] stood at 0.7 K; in [6] it was 1.5 K; in assay [7], 0.8 K; in assay [8] it was 2.5 K.

For the compound `CC(C)Oc1cc(-c2cnc3nc2NCCCNS(=O)(=O)c2cccc(c2)N3)ccc1F`, the deltaTm in assay [1] stood at 0.6 K; in [2] it was 0 K; in assay [3] it was 0.2 K; in assay [4], 1.6 K; at Ephrin type-A receptor 2, 0.7 K; at Ephrin type-A receptor 4, 0.7 K. Also, the deltaTm in [5] stood at 1 K; in assay [6], 1.5 K; in assay [7], 2.1 K; in assay [8], 3.4 K.

As for `COc1ccc(-c2cnc3nc2NCCCNS(=O)(=O)c2cccc(c2)N3)cc1OC`, the deltaTm in [1] is 0.8 K; in [2] it was 0.6 K; in assay [3], 2.1 K; in assay [4] it was 6.1 K; on Ephrin type-A receptor 2 it was 4.6 K; on Ephrin type-A receptor 4, 1.4 K. Moreover, the deltaTm in assay [5] amounted to 2.3 K; in assay [6], 3.3 K; in [7] it was 4.1 K; in assay [8], 1.4 K.

Regarding `COc1cc(-c2cnc3nc2NCCCNS(=O)(=O)c2cccc(c2)N3)c(F)cc1Cl`, the deltaTm in [1] stood at 0.4 K; in assay [2], 4.9 K; in assay [3], 6 K; in assay [4] it was 9.3 K; on Ephrin type-A receptor 2, 9.8 K; at Ephrin type-A receptor 4, 4.7 K. In addition, the deltaTm in assay [5] came out at 2.7 K; in [6], 3.4 K; in assay [7] it was 3 K; in assay [8] it was 5.8 K.

As to `O=S1(=O)NCCCNc2nc(ncc2-c2ccc(F)c(C(F)(F)F)c2)Nc2cccc1c2`, the deltaTm in assay [1] is 0.9 K; in [2], 0.6 K; in assay [3], 1.6 K; in [4], 3.1 K; on Ephrin type-A receptor 2, 3 K; at Ephrin type-A receptor 4, 0.7 K. The deltaTm in assay [5] stood at 1.3 K; in assay [6], 2.1 K; in assay [7], 1.8 K; in assay [8] it was 0.6 K.

As to `COc1cc(-c2cnc3nc2NCCCNS(=O)(=O)c2cc(ccc2C)N3)ccc1F`, the deltaTm in assay [1] amounted to 2 K; in assay [2], 4.2 K; in assay [3], 5.5 K; in assay [4], 6.4 K; on Ephrin type-A receptor 2 it was 7.6 K; at Ephrin type-A receptor 4, 3.6 K. For the same compound, the deltaTm in assay [5] is 2.7 K; in [6], 3 K; in assay [7] it was -1.3 K; in [8] it was 6.1 K.

`O=S1(=O)NCCCNc2nc(ncc2-c2cc(Cl)c(F)cc2F)Nc2cccc1c2`: the deltaTm in assay [1] was determined as 0.1 K; in [2], 3.3 K; in assay [3] it was 5.7 K; in assay [4], 5.8 K; at Ephrin type-A receptor 2, 7.5 K; on Ephrin type-A receptor 4, 3.2 K. Moreover, the deltaTm in assay [5] was 3.1 K; in assay [6], 4.7 K; in [7] it was 4.3 K; in assay [8] it was 4.3 K.
